Entries after “also recorded” stand apart in the source; their conditions may differ.

We go through one compound from US9359311B2, “Substituted aromatic oligomers” (NEUROSCIOS GMBH, priority 2011, dated 2016).

The subject of test [1] is amyloid depositions (plaques). The test can be described thus: Plaque number and plaque area in hAPPSL Tg mice (ThioflavinS staining). Conditions: twice daily i.p., 90 days, vs vehicle. In kind it is in vivo, mouse. The procedure:
Vehicle: Phosphate Buffered Saline (PBS; 6.7 mM PO4, 155 mM NaCl, pH=7.3-7.5) (BioWhittaker PBS from Lonza).
Test Item (T.I.): p-FTAA and P9707_003, diluted in vehicle from stock solution in deionized water (10 mg/ml).
Tg hAPPSL: Transgenic hAPPSL mice over-expressing hAPP(751) under the control of the murine Thy-1 promoter with a C57BL/6xDBA background.
48 hAPP Tg mice plus 4 reserves allocated to 4 different treatment groups were treated with either vehicle only (control), p-FTAA or P9707_003. As an additional control, 12 nTg littermates of the hAPPSL mice (plus 1 reserve) were treated with vehicle only. Starting at 6.5 months of age, female hAPPSL mice were treated with vehicle only, p-FTAA (dosage: 1 or 10 mg/kg/day) or P9707_003 (dosage: 10 mg/kg/day) for 90 days. The Test Items (T.I.s) were administered in Vehicle. Compound and vehicle were administered twice daily i.p. for 90 days. Tg hAPPSL mice with a C57BL/6xDBA background and corresponding nTg littermates at an age of 6.5 months (+2 weeks) were randomly assigned to the treatment groups. […]
Plaque load was quantified by staining with ThioflavinS staining of beta-sheet structures in a double incubation.
For determination of amyloid depositions 5 slices (1 from each level) per brain were stained and screened. Region areas (hippocampus and cortex) were measured and plaque surface area, number of plaques and mean size of objects within each region were quantified separately using automated image analysis software (Image Pro Plus, version 6.2).
Mosaic images for plaque load quantification including the whole cortex and hippocampus were recorded on a Zeiss AxioImager.Z1 microscope using high aperture lenses and an AxioVision 4.8 software driven AxioCam MRm (10× lens, 1× optocoupler). Plaques for AT180 quantifcation were imaged with a 20× lens. […]
Descriptive statistical analysis was performed on all evaluated parameters, Kolmogorov Smirnov test were performed to test normal distribution of data. […]

A further test has as its system primary chicken neurons. The test can be described thus: Inhibition of Abeta 1-42 toxicity on primary chicken neurons (MTT). To be noted: 10 μM Aβ1-42 aggregated together with compound for 48 h. Details: key: No: no effect; +: minor positive effect on cell viability in the presence of aggregated Aβ 1-42; ++: medium positive effect on cell viability in the presence of aggregated Aβ 1-42; +++: strong positive effect on cell viability in the presence of aggregated Aβ 1-42. In kind it is cell-based. As for the experimental part: One-day-old fertilized eggs are stored under appropriate conditions until start of breeding. On embryonic day 0 eggs are transferred to the breeding incubator and under turning, kept at 37.8° C. and 55% humidity until embryonic day eight. Neurons are prepared as follows: In short, embryos are transferred to a plastic dish, and decapitated. Both brain hemispheres are removed, collected and any loose tissue removed. Hemispheres are mechanically dissociated and 4.8×10^4 cells per well (96-well plates) are seeded in a volume of 160 μl.
Aβ1-42 (MW 4514.1) was obtained from American Peptide Company as a lyophilized powder. A stock solution of 340 μM Aβ1-42 was prepared in 50 mM Tris-Buffer, 150 mM NaCl, pH7.6 according to the manufacturer's instructions. After sonication, the stock solution is diluted 1:1 with the test compounds to obtain a concentration of 170, 17 and 1.7 μM. After aggregation at 4° C. for 48 h, the solutions are sonicated again prior to application to the cells. The final concentration of Aβ1-42 applied to the primary chicken neurons is 10 μM.
Aβ1-42 aggregated together with compound for 48 hrs was applied to chicken neurons at DIV4 (days in vitro) and analyzed at DIV10 (144 hrs) and all others were applied to chicken neurons at DIV6 and analysed at DIV10 (96 hrs).
Viability of cultures is determined by the MTT assay. The MTT assay allows for the measurement of the mitochondrial dehydrogenase activity which reduces yellow MTT to dark blue formazan crystals. Since this reaction is catalyzed in living cells only this assay is used for the determination of cell viability. MTT solution is added to each well in a final concentration of 0.5 mg/ml. After 2 hours the MTT containing medium is aspired. Cells are lysed in 3% SDS and the formazan crystals are dissolved in isopropanol/HCl. Optical density is measured with a plate-reader at wavelength 570 nm. Cell survival rate is expressed as a percentage of optical density (OD) relative to control cells not treated with Aβ or compound.

The mark [2] stands for this setting: P9707_003 10 mg/kg/day, p-FTAA 1 or 10 mg/kg/day.

In the case of `O=C(O)Cc1ccsc1-c1ccc(-c2sc(-c3ccc(-c4cc(CC(=O)O)c(-c5ccc(-c6sccc6CC(=O)O)s5)s4)s3)cc2CC(=O)O)s1` [Example 1, 2-(2-{5-[3-(Carboxymethyl)-5-{5-[4-(carboxymethyl)-5-{5-[3-(carboxymethyl)thiophen-2-yl]thiophen-2-yl}thiophen-2-yl]thiophen-2-yl}thiophen-2-yl]thiophen-2-yl}thiophen-3-yl)acetic acid], in test [1] (10 mg/kg/day, ThioflavinS), the “reduction of plaque number in the hippocampus” value is reported as 54%. The “hippocampal plaque area percentage (ThioflavinS)” value in test [1] (setting [2]) is recorded as “significantly lower plaque load; also recorded: reduced”. In addition, the “number of ThioflavinS positive objects (plaque number) in the hippocampus” value in test [1] (setting [2]) is “reduced object number; also recorded: highly significant reduced”. For the same compound, the entries for the “Rescue of Abeta toxicity (MTT)” value with primary chicken neurons (Conc. 0.1 μM), in the test on primary chicken neurons (Conc. 1 μM) and with primary chicken neurons (Conc. 10 μM) were “no”, “+++” and “+++”, respectively.
